pIC50, pKi: −log10 of the molar value. Entries after “also recorded” stand apart in the source; their conditions may differ. Like-named read-outs stand apart in the source and are kept apart here.
Legend:
[1] = system: HDJ2; assay: Inhibition of HDJ2 farnesylation in SH-SY5Y cells; format: cell-based, human; conditions: continuous exposure over long periods
[2] = system: p70 S6 kinase (S6K) phosphorylation, mTOR pathway; assay: p70 S6 kinase phosphorylation in SH-SY5Y cells; format: cell-based, human; conditions: SH-SY5Y (FIG. 8f)
Description: Rapamycin is a well-characterized autophagy stimulator that acts through inhibition of mTOR, a kinase involved in nutrient signaling and regulation of cell growth and survival.

[3] = system: TAU; assay: TAU441 transgenic mice, TAU immunoreactivity (AT180, HT7) in amygdala; format: in vivo, mouse; conditions: 0.09 mg/kg once every 24 hours, three months, vs vehicle
Experimental: Animals and treatments: Male and female human WT alpha-synuclein over-expressing transgenic mice^32 at 6 months of age were given vehicle (10% beta-cyclodextrin) or LNK-754-TS (0.09, 0.9 and 9 mg/kg) per oral gavage twice daily for 3 months or animals at 7 months of age were given vehicle (2.5% beta-cyclodextrin) or LNK-754-TS (2 mg/kg) once every three days for 3 months. […]
Immunohistochemistry and quantification of stained cells: For evaluation of α-synuclein immunoreactivity (IR), 5 sagittal cryo-cut sections (10 μm slice thickness) from five different layers were used for counting of IR cells in the cortex and hippocampus. […] IR positive cells were quantified using specialized image analysis software (Image Pro Plus, version 4.5.1.29). […] Images were evaluated with ImageProPlus (version 6.2) image analysis software. […] Primary antibodies were detected by the ABC method.
This study was designed to evaluate the effects of a treatment with LNK-754-TS dosed at 0.09 mg per kg on behavior, TAU and TAU-pT231 levels, and brain morphology of TAU441 Tg mice. Histological evaluations were performed to quantitatively evaluate TAU pathology. TAU depositions were determined using the monoclonal TAU-antibodies AT180 and HT7. […] Afterwards images were evaluated with ImageProPlus (version 6.2) image analysis software (FIG. 10A).

[4] = system: Ras; assay: Soluble/cytoplasmic Ras level in frontal cortex of alpha-synuclein transgenic mice; format: in vivo, mouse; conditions: 0.09 mg/kg or 9 mg/kg b.i.d. 3 months vs vehicle
Experimental: The level of inhibition of Ras in brain by LNK-754-TS, dosed at an efficacious dose for efficacy in animal models of proteinopathy-dependent neurodegeneration, was investigated. Alpha-synuclein transgenic mice were treated for 3 months b.i.d. with vehicle or LNK-754-TS at 0.09 mg/kg or 9 mg/kg. Cortical tissue was extracted and homogenized, followed by isolation of soluble/cytosolic proteins in detergent-free buffer (50 mM Tris-HCl pH 7.4, 140 mM NaCl, 2 mM EDTA, Protease inhibitor cocktail) by centrifugation. 15 micrograms of protein lysate was analyzed per lane of SDS-PAGE gel, and immunoblotted for Ras and actin (FIG. 6). Densitometry was used to quantify the Ras/actin ratio for each sample, and results were plotted (FIG. 7). […] This contrasts with what is observed in xenograft cancer models, where inhibition of Ras farnesylation by high dose FTIs is directly correlated with efficacy (FIG. 3 and Example 3).

[5] = system: 3T3H-ras (61 L) xenograft; conditions: cited from earlier work
[6] = system: Aβ; assay: Aβ immunohistochemistry, Thioflavin-S and Aβ40/Aβ42 ELISA in APP/PS1 transgenic mice; format: in vivo, mouse
Description: Immunohistochemistry and quantification of stained cells: For evaluation of α-synuclein immunoreactivity (IR), 5 sagittal cryo-cut sections (10 μm slice thickness) from five different layers were used for counting of IR cells in the cortex and hippocampus. Brain sections were stained with a monoclonal human α-synuclein specific antibody (Alexis®; Cat#804-258-L001; dilution 1:5), followed by a secondary Ab Cy 2-Goat Anti-Rat (Jackson ImmunoResearch®; dilution 1:200). IR positive cells were quantified using specialized image analysis software (Image Pro Plus, version 4.5.1.29). For Tau transgenic animals, 5 μm thick coronal paraffin sections were stained with the monoclonal mouse anti-human TAU-antibodies (AT180—1:100; HT7—1:500) and visualized using an anti-mouse Cy3 secondary antibody (1:500, Jackson Laboratories®). Images were evaluated with ImageProPlus (version 6.2) image analysis software. For APP/PS1 transgenic animals sagittal hemisections (40 μm) were collected and processed for Aβ immunohistochemistry using an 6E10 antibody, Thioflavin-S staining. Primary antibodies were detected by the ABC method.
ELISA quantification of α-Synuclein in the α-Synuclein transgenic animals: Brain homogenate was centrifuged and the supernatant saved as fraction F1. The pellet was washed then resuspended and saved as fraction F2. Plates (Nunc, 464718) were coated with SYN-1 (1:1000, BD Transduction Labs, 610787). Monomeric recombinant α-synuclein was included as an internal standard. Biotinylated antibody FL-140 (1:300, Santa Cruz Biotechnology, sc-10717-B) and ExtrAvidin-Alkaline phosphatase (3:5000, Sigma, E2636) was added followed by pNPP substrate solution (Sigma, N1891). Raw absorbance (405 nm) was then normalized to the total protein concentration of each sample. In the APP/PS1 transgenic animal, brains were homogenized and the supernatant, Faction 1, was separated from the pellet. The pellets were further processed with addition of NP40 and Triton X-100. The supernatant was separated from the pellet as the insoluble membrane, Fraction 2, and was dissolved in 8M Guanidine. To quantify the amount of human Aβ-40 and Aβ-42, ELISA kits were used (The Genetics Company, Zurich, Switzerland).
Mice were treated with LNK-754-TS for two months, tested for performance in the Morris water maze (MWM), and then sacrificed for immunohistochemical (Aβimmunoreactivity) and biochemical (ELISA measurement of Aβ40 and Aβ42) analysis.

[7] = molecular target: FTase (Homo sapiens, UniProt P49354+P49356); assay: Table 5A in vitro FTI (H-Ras, K-Ras protein) and Ki FTase; format: biochemical
Description: The selectivity of LNK-754 for FTase over GGTAse is shown below in Table 5A.

[8] = 0.9 mg/kg once every 24 hr, two months

Row | Compound | pIC50 [1] | phosphorylation of p70 S6 kinase (S6K) [2] | phosphorylated Tau (AT180) immunoreactivity in amygdala [3] | total TAU (HT7) immunoreactivity [3] | soluble Ras/actin level in cortex [4] | efficacy against tumor growth ([5]; 25 mg/kg, lowest dose tested) | dose required for suppression of tumor growth ([5]; 10 days BID, 3T3H-ras (61 L) xenograft athymic mouse) | Thioflavin-S staining in the subiculum [6, 8] | levels of Aβ40/Aβ42 from whole brain fractions, ELISA [6, 8] | number of Aβ (6E10) immunoreactive plaques in the subiculum ([6]; 0.9 mg/kg once every 24 hr, two months, vs vehicle) | Aβ40 or Aβ42 levels, Aβ immunoreactivity or Thio-S staining ([6]; 0.9 mg/kg, 12 days) | pKi [7] | GGTI/FTI (H-Ras) ([7]; ratio) | GGTI/FTI (K-Ras) ([7]; ratio) | pIC50 ([7]; read-out: H-Ras protein CLVS in vitro FTI) | pIC50 ([7]; read-out: K-Ras protein CVIM in vitro FTI)
1 | C#Cc1cccc(-c2cc(=O)n(C)c3ccc([C@](O)(c4ccc(Cl)cc4)c4cncn4C)cc23)c1 [LNK-754-TS, (R)-6-[(4-chlorophenyl)-hydroxyl-(1-methyl-1-H-imidazol-5-yl)-methyl]-4-(3-ethynylphenyl)-1-methyl-2-(1H)-quinonlinone (2S, 3S)-dihydroxybutanedioate] | 8.00 | did not inhibit phosphorylation | significantly decreased; also recorded: significant reduction; also recorded: significantly reduced | not significantly reduced; also recorded: did not change | No significant differences | borderline efficacy | at least 25 mg per kg | no statistically significant changes | no statistically significant changes | lesser, but still significant, effect; also recorded: significant decrease | no significant reduction | – | – | – | – | –
2 | C#Cc1cccc(-c2cc(=O)n(C)c3ccc([C@](O)(c4ccc(Cl)cc4)c4cncn4C)cc23)c1 [LNK-754, (R)-6-[(4-chlorophenyl)-hydroxyl-(1-methyl-1-H-imidazol-5-yl)-methyl]-4-(3-ethynylphenyl)-1-methyl-2-(1H)-quinonlinone] | – | – | – | – | – | – | – | – | – | – | – | > 10.30 | 580 | 40.11 | 9.05 | 7.14

— US20100331363A1, “TREATMENT OF MITOCHONDRIAL DISORDERS USING A FARNESYL TRANSFERASE INHIBITOR” (Link Medicine Corporation, priority 2008, published 2010)
